Test results as given in the NIST ThermoML archive (doi:10.1021/acs.jced.8b00554).
± gives the expanded uncertainty stated by the source.

Assay: xn = mol fraction of the nth substance listed
Details: Liquid, Vibrating tube method

Compound `CCCCCCCCCC` [decane] + CCCO has a mass density (323.15 K, 10000 kPa, x2 = 0.4326) of 726.96 ± 4.7 kg/m3, a mass density (323.15 K, 10010 kPa, x2 = 0.6863) of 743.54 ± 4.8 kg/m3 and a mass density (323.15 K, 10020 kPa, x2 = 0.8711) of 764.05 ± 4.9 kg/m3. The mass density (323.15 K, 11000 kPa, x2 = 0.1391) was 717.57 ± 4.6 kg/m3, the mass density (323.15 K, 11000 kPa, x2 = 0.1907) was 719.05 ± 4.6 kg/m3 and the mass density (323.15 K, 11010 kPa, x2 = 0.3001) was 723.06 ± 4.6 kg/m3. It also gave a mass density (323.15 K, 11010 kPa, x2 = 0.4326) of 727.85 ± 4.7 kg/m3, a mass density (323.15 K, 11010 kPa, x2 = 0.6863) of 744.43 ± 4.8 kg/m3 and a mass density (323.15 K, 11020 kPa, x2 = 0.8711) of 764.93 ± 4.9 kg/m3. It also gave a mass density (323.15 K, 12000 kPa, x2 = 0.3001) of 723.94 ± 4.6 kg/m3, a mass density (323.15 K, 12010 kPa, x2 = 0.1391) of 718.43 ± 4.6 kg/m3 and a mass density (323.15 K, 12010 kPa, x2 = 0.6863) of 745.32 ± 4.8 kg/m3. It also gave a mass density (323.15 K, 12020 kPa, x2 = 0.1907) of 719.94 ± 4.6 kg/m3, a mass density (323.15 K, 12020 kPa, x2 = 0.4326) of 728.74 ± 4.7 kg/m3 and a mass density (323.15 K, 12020 kPa, x2 = 0.8711) of 765.79 ± 4.9 kg/m3. For the same compound, the mass density (323.15 K, 13000 kPa, x2 = 0.1391) was 719.28 ± 4.6 kg/m3, the mass density (323.15 K, 13010 kPa, x2 = 0.1907) was 720.8 ± 4.6 kg/m3 and the mass density (323.15 K, 13010 kPa, x2 = 0.3001) was 724.81 ± 4.7 kg/m3. The mass density (323.15 K, 13010 kPa, x2 = 0.6863) was 746.21 ± 4.8 kg/m3, the mass density (323.15 K, 13020 kPa, x2 = 0.4326) was 729.62 ± 4.7 kg/m3 and the mass density (323.15 K, 13020 kPa, x2 = 0.8711) was 766.65 ± 4.9 kg/m3. The mass density (323.15 K, 14000 kPa, x2 = 0.3001) was 725.66 ± 4.7 kg/m3, the mass density (323.15 K, 14000 kPa, x2 = 0.4326) was 730.47 ± 4.7 kg/m3 and the mass density (323.15 K, 14000 kPa, x2 = 0.6863) was 747.08 ± 4.8 kg/m3. The mass density (323.15 K, 14010 kPa, x2 = 0.1391) was 720.12 ± 4.6 kg/m3, the mass density (323.15 K, 14020 kPa, x2 = 0.1907) was 721.64 ± 4.6 kg/m3 and the mass density (323.15 K, 14020 kPa, x2 = 0.8711) was 767.51 ± 4.9 kg/m3. For the same compound, the mass density (323.15 K, 15000 kPa, x2 = 0.4326) was 731.33 ± 4.7 kg/m3, the mass density (323.15 K, 15000 kPa, x2 = 0.6863) was 747.92 ± 4.8 kg/m3 and the mass density (323.15 K, 15000 kPa, x2 = 0.8711) was 768.36 ± 4.9 kg/m3. For the same compound, the mass density (323.15 K, 15010 kPa, x2 = 0.1391) was 720.95 ± 4.6 kg/m3, the mass density (323.15 K, 15010 kPa, x2 = 0.3001) was 726.5 ± 4.7 kg/m3 and the mass density (323.15 K, 15020 kPa, x2 = 0.1907) was 722.47 ± 4.6 kg/m3. For the same compound, the mass density (323.15 K, 16000 kPa, x2 = 0.1907) was 723.29 ± 4.6 kg/m3, the mass density (323.15 K, 16000 kPa, x2 = 0.6863) was 748.78 ± 4.8 kg/m3 and the mass density (323.15 K, 16000 kPa, x2 = 0.8711) was 769.18 ± 4.9 kg/m3. For the same compound, the mass density (323.15 K, 16010 kPa, x2 = 0.1391) was 721.76 ± 4.6 kg/m3, the mass density (323.15 K, 16010 kPa, x2 = 0.3001) was 727.33 ± 4.7 kg/m3 and the mass density (323.15 K, 16010 kPa, x2 = 0.4326) was 732.15 ± 4.7 kg/m3. It also gave a mass density (323.15 K, 17000 kPa, x2 = 0.1391) of 722.56 ± 4.6 kg/m3, a mass density (323.15 K, 17000 kPa, x2 = 0.6863) of 749.59 ± 4.8 kg/m3 and a mass density (323.15 K, 17010 kPa, x2 = 0.1907) of 724.12 ± 4.6 kg/m3. The mass density (323.15 K, 17010 kPa, x2 = 0.4326) was 732.96 ± 4.7 kg/m3, the mass density (323.15 K, 17010 kPa, x2 = 0.8711) was 770.01 ± 4.9 kg/m3 and the mass density (323.15 K, 17020 kPa, x2 = 0.3001) was 728.15 ± 4.7 kg/m3. For the same compound, the mass density (323.15 K, 18010 kPa, x2 = 0.1391) was 723.35 ± 4.6 kg/m3, the mass density (323.15 K, 18010 kPa, x2 = 0.3001) was 728.94 ± 4.7 kg/m3 and the mass density (323.15 K, 18010 kPa, x2 = 0.4326) was 733.77 ± 4.7 kg/m3. For the same compound, the mass density (323.15 K, 18010 kPa, x2 = 0.6863) was 750.41 ± 4.8 kg/m3, the mass density (323.15 K, 18010 kPa, x2 = 0.8711) was 770.81 ± 4.9 kg/m3 and the mass density (323.15 K, 18020 kPa, x2 = 0.1907) was 724.91 ± 4.7 kg/m3. The mass density (323.15 K, 19000 kPa, x2 = 0.4326) was 734.57 ± 4.7 kg/m3, the mass density (323.15 K, 19010 kPa, x2 = 0.1907) was 725.67 ± 4.7 kg/m3 and the mass density (323.15 K, 19010 kPa, x2 = 0.3001) was 729.72 ± 4.7 kg/m3. For the same compound, the mass density (323.15 K, 19010 kPa, x2 = 0.6863) was 751.21 ± 4.8 kg/m3, the mass density (323.15 K, 19010 kPa, x2 = 0.8711) was 771.61 ± 5 kg/m3 and the mass density (323.15 K, 19020 kPa, x2 = 0.1391) was 724.11 ± 4.6 kg/m3. The mass density (323.15 K, 20010 kPa, x2 = 0.1391) was 724.85 ± 4.7 kg/m3, the mass density (323.15 K, 20010 kPa, x2 = 0.1907) was 726.42 ± 4.7 kg/m3 and the mass density (323.15 K, 20010 kPa, x2 = 0.4326) was 735.37 ± 4.7 kg/m3. For the same compound, the mass density (323.15 K, 20010 kPa, x2 = 0.8711) was 772.39 ± 5 kg/m3, the mass density (323.15 K, 20020 kPa, x2 = 0.3001) was 730.47 ± 4.7 kg/m3 and the mass density (323.15 K, 20020 kPa, x2 = 0.6863) was 752 ± 4.8 kg/m3. The mass density (333.15 K, 100 kPa, x2 = 0.1391) was 698 ± 4.5 kg/m3, the mass density (333.15 K, 100 kPa, x2 = 0.1907) was 699.22 ± 4.5 kg/m3 and the mass density (333.15 K, 100 kPa, x2 = 0.3001) was 702.36 ± 4.5 kg/m3. For the same compound, the mass density (333.15 K, 100 kPa, x2 = 0.4326) was 706.94 ± 4.5 kg/m3, the mass density (333.15 K, 100 kPa, x2 = 0.6863) was 723.34 ± 4.6 kg/m3 and the mass density (333.15 K, 100 kPa, x2 = 0.8711) was 744.53 ± 4.8 kg/m3. The mass density (333.15 K, 1000 kPa, x2 = 0.8711) was 745.47 ± 4.8 kg/m3, the mass density (333.15 K, 1010 kPa, x2 = 0.3001) was 703.4 ± 4.5 kg/m3 and the mass density (333.15 K, 1010 kPa, x2 = 0.4326) was 708.03 ± 4.5 kg/m3. It also gave a mass density (333.15 K, 1010 kPa, x2 = 0.6863) of 724.38 ± 4.6 kg/m3, a mass density (333.15 K, 1020 kPa, x2 = 0.1391) of 699.13 ± 4.5 kg/m3 and a mass density (333.15 K, 1020 kPa, x2 = 0.1907) of 700.31 ± 4.5 kg/m3. The mass density (333.15 K, 2000 kPa, x2 = 0.1391) was 700.15 ± 4.5 kg/m3, the mass density (333.15 K, 2000 kPa, x2 = 0.1907) was 701.33 ± 4.5 kg/m3 and the mass density (333.15 K, 2000 kPa, x2 = 0.6863) was 725.39 ± 4.7 kg/m3. For the same compound, the mass density (333.15 K, 2010 kPa, x2 = 0.4326) was 709.06 ± 4.5 kg/m3, the mass density (333.15 K, 2020 kPa, x2 = 0.3001) was 704.44 ± 4.5 kg/m3 and the mass density (333.15 K, 2020 kPa, x2 = 0.8711) was 746.44 ± 4.8 kg/m3. It also gave a mass density (333.15 K, 3000 kPa, x2 = 0.3001) of 705.44 ± 4.5 kg/m3, a mass density (333.15 K, 3010 kPa, x2 = 0.1391) of 701.15 ± 4.5 kg/m3 and a mass density (333.15 K, 3010 kPa, x2 = 0.1907) of 702.33 ± 4.5 kg/m3. It also gave a mass density (333.15 K, 3010 kPa, x2 = 0.4326) of 710.06 ± 4.5 kg/m3, a mass density (333.15 K, 3010 kPa, x2 = 0.6863) of 726.41 ± 4.7 kg/m3 and a mass density (333.15 K, 3010 kPa, x2 = 0.8711) of 747.43 ± 4.8 kg/m3. For the same compound, the mass density (333.15 K, 4000 kPa, x2 = 0.1391) was 702.13 ± 4.5 kg/m3, the mass density (333.15 K, 4000 kPa, x2 = 0.1907) was 703.34 ± 4.5 kg/m3 and the mass density (333.15 K, 4010 kPa, x2 = 0.4326) was 711.1 ± 4.5 kg/m3. The mass density (333.15 K, 4010 kPa, x2 = 0.8711) was 748.4 ± 4.8 kg/m3, the mass density (333.15 K, 4020 kPa, x2 = 0.3001) was 706.45 ± 4.5 kg/m3 and the mass density (333.15 K, 4020 kPa, x2 = 0.6863) was 727.43 ± 4.7 kg/m3. It also gave a mass density (333.15 K, 5000 kPa, x2 = 0.1907) of 704.33 ± 4.5 kg/m3.
